Assays:
human Nav1.7 = human Nav1.7 (Homo sapiens (Human), UniProt Q15858); assay: FLIPR or FLIPR TETRA sodium dye assay with KCl and test article pre-incubation; format: cell-based; settings: sodium dye assay with KCl; recombinant Nav1.7/HEK293 cells; read-out: Nav1.7 IC50 (μM) ± SEM
[1] = test system: FCA-induced inflammation of the rat hind paw; assay: Freund's complete adjuvant (FCA) model of inflammatory pain, paw withdrawal threshold; format: in vivo
Protocol: Each experiment uses rats weighing between 200-260 g at the start of the experiment. The rats are group-housed and have free access to food and water at all times, except prior to oral administration of a test compound when food is removed for 16 hours before dosing. A control group acts as a comparison to rats treated with a compound of Formulae I-XIII. The control group is administered the carrier as used for the test compound. The volume of carrier administered to the control group is the same as the volume of carrier and test compound administered to the test group.
To assess the actions of the compounds of Formulae I-XIII on the treatment of inflammatory pain the Freund's complete adjuvant (“FCA”) model of inflammatory pain was used. […] 24 hour post injection, the animal was assessed for response to noxious mechanical stimuli by determining the paw withdrawal threshold (PWT), or to noxious thermal stimuli by determining the paw withdrawal latency (PWL), as described below. […] Responses to noxious mechanical or thermal stimuli were determined 1, 3, and 5 hours post administration (admin). […]
Sensitivity to noxious mechanical stimuli can be measured in animals using the paw pressure test to assess mechanical hyperalgesia. […] PWT is determined once for each rat at each time point. PWT can be measured only in the injured paw, or in both the injured and non-injured paw. […]

Sequence of human Nav1.7 (Q15858 other isoform, or with tags, fused parts or gaps): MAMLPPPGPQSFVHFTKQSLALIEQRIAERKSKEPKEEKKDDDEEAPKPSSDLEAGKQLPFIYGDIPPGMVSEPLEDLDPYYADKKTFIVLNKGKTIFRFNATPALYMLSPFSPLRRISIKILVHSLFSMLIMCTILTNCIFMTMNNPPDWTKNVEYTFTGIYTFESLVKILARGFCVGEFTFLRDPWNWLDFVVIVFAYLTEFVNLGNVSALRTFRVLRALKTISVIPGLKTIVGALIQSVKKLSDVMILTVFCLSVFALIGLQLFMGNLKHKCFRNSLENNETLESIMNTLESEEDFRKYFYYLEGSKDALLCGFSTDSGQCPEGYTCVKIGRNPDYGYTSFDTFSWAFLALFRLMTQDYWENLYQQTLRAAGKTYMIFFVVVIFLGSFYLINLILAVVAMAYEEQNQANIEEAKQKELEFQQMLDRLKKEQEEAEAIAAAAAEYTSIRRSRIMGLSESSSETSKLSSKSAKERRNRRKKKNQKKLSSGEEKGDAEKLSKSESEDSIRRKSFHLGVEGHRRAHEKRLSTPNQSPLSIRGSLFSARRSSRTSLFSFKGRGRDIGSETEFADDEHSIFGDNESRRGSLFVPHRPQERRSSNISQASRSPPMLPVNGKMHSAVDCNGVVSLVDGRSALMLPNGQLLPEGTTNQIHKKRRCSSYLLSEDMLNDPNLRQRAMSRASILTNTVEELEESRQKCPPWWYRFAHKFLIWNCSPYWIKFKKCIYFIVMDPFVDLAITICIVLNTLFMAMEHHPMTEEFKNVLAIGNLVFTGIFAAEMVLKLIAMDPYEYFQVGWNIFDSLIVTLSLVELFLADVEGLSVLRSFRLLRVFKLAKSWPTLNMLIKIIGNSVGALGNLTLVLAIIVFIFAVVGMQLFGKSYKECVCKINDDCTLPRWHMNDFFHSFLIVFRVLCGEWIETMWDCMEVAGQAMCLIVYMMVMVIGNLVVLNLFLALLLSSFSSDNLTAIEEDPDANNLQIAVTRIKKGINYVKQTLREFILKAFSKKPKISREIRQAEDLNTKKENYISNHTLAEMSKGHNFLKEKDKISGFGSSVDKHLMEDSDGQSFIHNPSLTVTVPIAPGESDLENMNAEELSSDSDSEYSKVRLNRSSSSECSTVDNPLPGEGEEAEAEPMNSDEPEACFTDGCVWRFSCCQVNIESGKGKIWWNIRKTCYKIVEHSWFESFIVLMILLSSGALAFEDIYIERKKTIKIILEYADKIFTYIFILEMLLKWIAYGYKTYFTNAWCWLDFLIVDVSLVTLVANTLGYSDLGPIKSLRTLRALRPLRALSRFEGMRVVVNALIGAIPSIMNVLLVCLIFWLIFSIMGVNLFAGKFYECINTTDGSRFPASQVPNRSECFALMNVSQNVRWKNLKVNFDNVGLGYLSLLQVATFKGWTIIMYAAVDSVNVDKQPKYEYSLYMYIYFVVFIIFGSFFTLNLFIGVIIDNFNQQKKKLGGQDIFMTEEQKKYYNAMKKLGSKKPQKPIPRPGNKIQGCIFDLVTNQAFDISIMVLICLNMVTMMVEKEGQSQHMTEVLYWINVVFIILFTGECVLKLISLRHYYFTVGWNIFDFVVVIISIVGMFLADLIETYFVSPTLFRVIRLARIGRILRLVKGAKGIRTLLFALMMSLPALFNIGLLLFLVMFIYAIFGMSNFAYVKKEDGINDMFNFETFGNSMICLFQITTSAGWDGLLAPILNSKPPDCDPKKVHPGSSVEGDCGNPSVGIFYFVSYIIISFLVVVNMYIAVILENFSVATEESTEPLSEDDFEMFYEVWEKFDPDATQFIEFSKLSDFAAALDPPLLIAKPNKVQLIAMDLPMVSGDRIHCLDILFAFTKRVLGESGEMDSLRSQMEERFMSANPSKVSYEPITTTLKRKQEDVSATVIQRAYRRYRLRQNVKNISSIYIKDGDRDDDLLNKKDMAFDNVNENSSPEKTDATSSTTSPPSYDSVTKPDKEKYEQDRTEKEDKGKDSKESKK

Compound	IC50 (human Nav1.7) [µM]	increase in PWT (paw withdrawal threshold) ([1]; 10 mg/kg, oral (PO), 3 h post administration)	increase in PWT (paw withdrawal threshold) ([1]; 30 mg/kg, oral (PO), 1, 3 and 5 h post administration)
NC(=O)[C@H](CO)NC(=O)c1cccc(-c2ccc(Oc3ccc(F)cc3)cc2)n1 [Compound 47, 6-[4-(4-fluoro-phenoxy)-phenyl]-pyridine-2-carboxylic acid ((S)-1-carbamoyl-2-hydroxy-ethyl)-amide]	1.53 ± 0.33	statistically significant increase	statistically significant increase
CS(=O)(=O)NCCNC(=O)c1cccc(-c2ccc(Oc3ccc(F)cc3)cc2)n1 [Compound 21, 6-(4-(4-fluorophenoxy)phenyl)-N-(2-(methylsulfonamido)ethyl)picolinamide]	0.39 ± 0.08	–	–

Reference: patent publication US9120752B2, “Pyridine compounds as sodium channel blockers” (Purdue Pharma, L.P., priority 2010, dated 2015)
